US20260107938A1, “HERBICIDE/SAFENER COMBINATION BASED ON SAFENERS FROM THE CLASS OF SUBSTITUTED [(1,5- DIPHENYL-1H-1,2,4-TRIAZOL-3-YL)OXY]ACETIC ACIDS AND THEIR SALTS” (BAYER AKTIENGESELLSCHAFT, priority 2022, published 2026)

Test system: summer wheat (TRZAS; cv. Triso)
Assay: Greenhouse post-emergence trial: reduction in herbicide damage to summer wheat by safener
Type: in vivo
Set-up: key to Reduction in damage by safener (difference): difference in visual damage, % points (0-100% scale vs untreated)
Details: 21 days after application
Description: Effect of selective herbicide/safener combinations of the invention using the example of reduction in damage to summer wheat (TRZAS):
The seeds of the crop plants to be treated were laid out in soil in plastic pots (diameter ˜8 cm), covered with soil and grown in a greenhouse under good conditions for germination and growth. The trial plants were treated at the early leaf stage (BBCH12).
For this purpose, the herbicides and safeners used were formulated as wettable powders (WP), mixed in accordance with the dose specified in each case, and sprayed onto the above-ground parts of the plants as an aqueous suspension at a water application rate corresponding to 300 l/ha with addition of wetting agent (Mero, 1.5 l/ha).
The dose of the respective herbicides was chosen here such that it causes visually apparent damage (min. 30%, max. 70%) compared to untreated crop plants at the evaluation time on a control group of crop plants without safener treatment that were included in the same trial. After application, the plants were cultivated under good growth conditions in a greenhouse. 21 days after application, the herbicide damage was assessed visually. The damage was assessed visually on a scale of 0-100% by comparison with untreated control plants, and averaged over 2 repeats per treatment.
0%=no noticeable effect compared to the untreated plant 20%=the treated plant population has 20% damage compared to the untreated control population (e.g. growth height, leaf damage, etc.)
100%=treated plants completely damaged/killed.
The safeners were each used at an application rate of 80 g/ha.

[1] = herbicide B19 100 g a.i./ha + safener 80 g/ha
[2] = herbicide B110 50 g a.i./ha + safener 80 g/ha
[3] = herbicide B122 50 g a.i./ha + safener 80 g/ha
[4] = herbicide B123 50 g a.i./ha + safener 80 g/ha

COC(=O)COc1nc(-c2ccc(Cl)cc2F)n(-c2ccc(Cl)cc2F)n1 [Compound A1, methyl {[1,5-bis(4-chloro-2-fluorophenyl)-1H-1,2,4-triazol-3-yl]oxy}acetate]
Damage to the plant on application of herbicide + safener [1]: 0% | Reduction in damage by safener (difference) [1]: 30 | Reduction in damage by safener (in %) [1]: 100% | Damage to the plant on application of herbicide + safener [2]: 0% | Reduction in damage by safener (difference) [2]: 70 | Reduction in damage by safener (in %) [2]: 100% | Damage to the plant on application of herbicide + safener [3]: 0% | Reduction in damage by safener (difference) [3]: 55 | Reduction in damage by safener (in %) [3]: 100% | Damage to the plant on application of herbicide + safener [4]: 10% | Reduction in damage by safener (difference) [4]: 60 | Reduction in damage by safener (in %) [4]: 86%

COC(=O)COc1nc(-c2ccc(F)cc2F)n(-c2ccc(Cl)cc2F)n1 [Compound A5, methyl {[1-(4-chloro-2-fluorophenyl)-5-(2,4-difluorophenyl)-1H-1,2,4-triazol-3-yl]oxy}acetate]
Damage to the plant on application of herbicide + safener [1]: 0% | Reduction in damage by safener (difference) [1]: 30 | Reduction in damage by safener (in %) [1]: 100% | Damage to the plant on application of herbicide + safener [2]: 0% | Reduction in damage by safener (difference) [2]: 70 | Reduction in damage by safener (in %) [2]: 100% | Damage to the plant on application of herbicide + safener [3]: 0% | Reduction in damage by safener (difference) [3]: 55 | Reduction in damage by safener (in %) [3]: 100% | Damage to the plant on application of herbicide + safener [4]: 25% | Reduction in damage by safener (difference) [4]: 45 | Reduction in damage by safener (in %) [4]: 64%
